{
  "source": "patent US20020132793A1",
  "about": "“Use of methylphenidate compounds to enhance memory” (priority 2000, published 2002)",
  "key": {"[1]": {"tested_on": "IA memory in the rat", "test": "Inhibitory Avoidance (IA) task in normal rats", "format": "in vivo", "settings": "for retention on the IA task: FIG. 1", "description": "An exemplary passive avoidance test utilizes an apparatus that consists of a lit chamber that can be separated from a dark chamber by a sliding door. At training, the animal is placed in the lit chamber for some period of time, and the door is opened. The animal moves to the dark chamber after a short delay—the latency—that is recorded. Upon entry into the dark chamber, the door is shut closed and a foot shock is delivered. Retention of the experience is determined after various time intervals, e.g., 24 or 48 hours, by repeating the test and recording the latency. The protocol is one of many variants of the passive avoidance procedures (for review, see Rush (1988) Behav Neural Biol 50:255).\nThe Inhibitory Avoidance (IA) task is a well-studied behavioral paradigm which can provide the researcher with a consistent and long-lasting measure of memory. The paradigm consists of one training trial and one retention trial. Test articles may be administered to the rats either before or after training. Improved memory, as a result of test compound administration, is evident as increased latency on the retention trial. The objective of the following experiments was to investigate the effects of methylphenidate on IA memory in the rat.\nIn this experiment, rats were injected with three different doses of methylphenidate thirty minutes prior to training on the IA task.\nRats were injected with 5 mg/kg of methylphenidate and trained on the IA task.\nIn this experiment, the time of drug administration was varied in order to determine the optimal pre-training drug administration time.\nThis experiment was conducted in order to determine whether the enhanced retention observed in Experiment 2 was long-lasting. Rats received a second retention test one week after the first retention test. No additional training or drug was administered to the animals in the interim period.\nIn the next experiment, we investigated whether the performance of amnesic rats could be improved by administration of methylphenidate. In this experiment, control rats and rats with lesions of the fornix received injections of either saline or methylphenidate (5 mg/kg), and one hour later, were tested on the IA task.\nDifferent doses of l-threo methylphenidate were administered to rats one hour prior to training on the Inhibitory Avoidance task. Retention for the task was tested 24 hours later. […] This experiment was subsequently replicated using a target dose of 5 mg/kg.\nThe effects of d-threo methylphenidate on memory consolidation as tested by the Inhibitory Avoidance task were also evaluated. Different doses of d-threo were administered to rats one hour prior to training on the Inhibitory Avoidance task."}, "[2]": {"tested_on": "rats with lesions of the fornix", "test": "Inhibitory Avoidance (IA) task in rats with lesions of the fornix", "format": "in vivo, rat", "settings": "5 mg/kg, one hour before"}, "[3]": {"settings": "cited from earlier work"}, "[4]": {"tested_on": "locomotor activity", "test": "Activity monitoring task (locomotor activity levels)", "description": "The effects of d-threo methylphenidate on locomotor activity was investigated by injecting rats with saline or 2.5 mg/kg of d-threo methylphenidate, and testing them one hour later on the activity monitoring task.\nIn order to investigate the effects of l-threo methylphenidate on activity levels, rats were injected with 5 mg/kg of l-threo methylphenidate, and underwent activity monitoring one hour later."}, "[5]": {"tested_on": "memory retention", "test": "Providence Recognition Memory Test (Pictoral) in healthy human volunteers", "format": "in vivo", "settings": "PRMT (ascending) and RAVLT (descending) experiments together", "excerpt": "(§1) The primary objective of the study is to identify the MTD and dose-limiting side-effects of l-threo methylphenidate hydrochloride. The secondary objectives included:\n(§2) This was a randomised, double-blind, placebo-controlled, study including eight healthy male/female subjects. There were five treatment periods, each comprising two treatment days, with a 5-day washout period between dose levels. Subjects received four ascending doses of drug (a split dose on the first day of the treatment period and half the dose on the second day of the treatment period) and placebo. The placebo dose was randomly assigned to one of the five treatment periods. Each dose was taken orally.\n(§3) The first dose level was administered on Day 1 and Day 2. After a 5-day washout period, subjects received the next dose level for 2 days. The period of washout and dose escalation was repeated until all five dose levels (four active dose levels and one placebo) were administered. Safety and tolerability was assessed after each treatment period to determine if subjects may advance to the next dose level.\nPatients were assessed using the Providence Recognition Memory Test (Pictoral). Higher PRMT score indicates increased memory retention. […] This study was performed on Decending Plasma Curve of l-threo-methylphenidate. Higher RAVLT score indicates increased memory retention."}, "[6]": {"tested_on": "attention and learning", "test": "Brief Visuospatial Memory Test in healthy human volunteers", "format": "in vivo", "excerpt": "as §1, §2, §3\nHigher BVMT score indicates increased attention and learning."}, "[7]": {"settings": "2.5 mg/kg, tested one hour later, vs saline"}, "[8]": {"settings": "5 mg/kg, one hour later, vs saline"}},
  "data": [
    {"smiles": "COC(=O)C(c1ccccc1)C1CCCCN1", "note": "(racemic) [methylphenidate, methyl α-phenyl-2-piperidineacetate]", "values": [
      {"measurement": "retention on the IA task", "setting": "[1]; 5 mg/kg injected thirty minutes prior to training", "result": "improved retention"},
      {"measurement": "performance of normal rats on the IA task", "setting": "[1]; 5 mg/kg, one hour before, FIG. 3", "result": "dramatically enhanced"},
      {"measurement": "performance of normal rats vs all other experimental groups (Student-Newman-Keuls post hoc)", "setting": "[1]; 5 mg/kg, one hour before, p<0.05", "result": "significantly enhanced relative to all other experimental groups"},
      {"measurement": "optimal pre-training drug administration time", "setting": "[1]; 5 mg/kg, time of drug administration varied", "result": "most effective when administered to the rats one hour prior to training"},
      {"measurement": "retention of the IA task, second experiment", "setting": "[1]; 5 mg/kg, unpaired t-test p<0.03, FIG. 2", "result": "significantly improved retention"},
      {"measurement": "retention on the IA task", "setting": "[1]; 10 mg/kg injected thirty minutes prior to training", "result": "no effect"},
      {"measurement": "retention on the IA task", "setting": "[1]; 15 mg/kg injected thirty minutes prior to training", "result": "no effect"},
      {"measurement": "performance at second retention test (long-term retention)", "setting": "[1]; one week after the first retention test, no additional training or drug, t(54)=2.358, p<0.0220", "result": "still significantly enhanced"},
      {"measurement": "performance of the fornix lesion rats on the IA task", "setting": "[2]; FIG. 3", "result": "appeared to improve"},
      {"measurement": "performance of fornix animals vs normal, saline injected animals", "setting": "[2]; post hoc test", "result": "not significantly different from normal, saline injected animals"},
      {"measurement": "half-life", "setting": "[3]; in adults", "result": "2 to 3", "unit": "h"},
      {"measurement": "time to excretion after dosing", "setting": "[3]; in adults", "result": "48 to 96", "unit": "h"}
    ]},
    {"smiles": "COC(=O)[C@H](c1ccccc1)[C@H]1CCCCN1", "note": "[d-threo methylphenidate, D-threo-methylphenidate]", "values": [
      {"measurement": "memory consolidation in the Inhibitory Avoidance task, dose finding", "setting": "[1]; 2.5 mg/kg one hour prior to training, FIG. 6", "result": "appears to be effective in improving memory"},
      {"measurement": "memory in the Inhibitory Avoidance task, replication", "setting": "[1]; 2.5 mg/kg, t(85)=2.403, p<0.0184, FIG. 7", "result": "significant memory enhancing effects"},
      {"measurement": "number of movements", "setting": "[4]; [7]", "result": "No significant main effects"},
      {"measurement": "number of stereotyped activities", "setting": "[4]; [7]", "result": "No significant main effects"},
      {"measurement": "total distance moved", "setting": "[4]; [7]", "result": "No significant main effects"},
      {"measurement": "number of rears", "setting": "[4]; 2.5 mg/kg, tested one hour later, vs saline, F(1, 70)=19.60, p<0.0234", "result": "Significant main effects"},
      {"measurement": "movement time", "setting": "[4]; 2.5 mg/kg, tested one hour later, vs saline, F(1, 70)=1304, p<0.0001", "result": "Significant main effects"},
      {"measurement": "rest time", "setting": "[4]; 2.5 mg/kg, tested one hour later, vs saline, F(1, 70)=1322, p<0.0001", "result": "Significant main effects"},
      {"measurement": "hyperactivity (locomotor activity)", "setting": "[4]; 2.5 mg/kg, tested one hour later, vs saline, FIG. 9", "result": "did not produce a large amount of hyperactivity"}
    ]},
    {"smiles": "COC(=O)[C@@H](c1ccccc1)[C@@H]1CCCCN1", "note": "[l-threo methylphenidate, L-threo-methylphenidate]", "values": [
      {"measurement": "performance on the Inhibitory Avoidance task, dose finding", "setting": "[1]; 5 mg/kg one hour prior to training, retention tested 24 hours later, FIG. 4", "result": "appeared to be effective in enhancing performance"},
      {"measurement": "performance of the Inhibitory Avoidance task, replication", "setting": "[1]; 5 mg/kg one hour prior to training, t(59)=2.686, p<0.0094, FIG. 5", "result": "significantly enhanced performance"},
      {"measurement": "activity levels compared to saline injected controls", "setting": "[4]; 5 mg/kg, activity monitoring one hour later, FIG. 8", "result": "did not result in greatly increased activity levels"},
      {"measurement": "locomotor hyperactivity, overall", "setting": "[4]; 5 mg/kg, one hour later", "result": "does not appear to result in serious locomotor hyperactivity"},
      {"measurement": "number of movements", "setting": "[4]; [8]", "result": "no significant difference"},
      {"measurement": "number of stereotyped activities", "setting": "[4]; [8]", "result": "no significant difference"},
      {"measurement": "total distance moved", "setting": "[4]; [8]", "result": "no significant difference"},
      {"measurement": "number of rears", "setting": "[4]; 5 mg/kg, one hour later, vs saline, F(1, 70)=74.26, p<0.0001", "result": "small, but statistically significant main effects"},
      {"measurement": "movement time", "setting": "[4]; 5 mg/kg, one hour later, vs saline, F(1, 70)=728, p<0.0033", "result": "small, but statistically significant main effects"},
      {"measurement": "time spent resting", "setting": "[4]; 5 mg/kg, one hour later, vs saline, F(1, 70)=730.6, p<0.0032", "result": "small, but statistically significant main effects"},
      {"measurement": "memory enhancement, ascending vs descending portion of the plasma curve", "setting": "[5]", "result": "more effective during the ascending portion of the plasma curve"},
      {"measurement": "enhancement of attention and learning by portion of the plasma curve", "setting": "[6]; BVMT", "result": "more effective during the ascending portion of the plasma curve"},
      {"measurement": "attention and learning, BVMT score", "setting": "[6]; ascending blood concentration, oral, healthy volunteers, FIG. 14", "result": "can enhance attention and learning in patients"},
      {"measurement": "half-life relative to dl-threo methylphenidate", "setting": "[3]; strong evidence", "result": "even shorter half-life"}
    ]}
  ]
}
